Source: patent US8609654B1, “Compounds for enzyme inhibition” (Onyx Therapeutics, Inc., priority 2006, dated 2013)

Key:
[1] = system: chymotryptic-like activity of isolated 20S constitutive proteasome vs immunoproteasome; experiment: Enzyme kinetic assay with isolated 20S proteasome preps, EC50 ratio of CT-L activity (20S ratio); assay type: biochemical; details: constitutive proteasome to immunoproteasome, >1 = prefers immunoproteasome
Excerpt: Enzyme kinetic assays such as those disclosed in U.S. application Ser. No. 09/569,748, Example 2 and Stein et al., Biochem. (1996), 35, 3899-3908 use isolated 20S proteasome preps with greater than 90% constitutive proteasome subunits or immunoproteasome subunits. The inhibitory preference of the molecule is then based on the EC50 ratio of the chymotryptic-like activity of the constitutive proteasome to that of the immunoproteasome (20S ratio).

[2] = target: T1, 26S proteasome CT-L activity in lysate of HT29 (constitutive) vs Sultan/Thp1 (immunoproteasome) cells (Homo sapiens, UniProt P28062+P28074); experiment: CT-L EC50 with 26S proteasome in cell lysate (Lysate ratio); assay type: biochemical; details: HT29 lysate to Sultan/Thp1 lysate, >1 = prefers immunoproteasome
T1 construct: using 26S proteasome in the context of a cell lysate; endogenous in cells; host or cells: HT29 lysate (constitutive); Sultan or THP1 lysate (immunoproteasome)
T1 sequence (P28074 60-263): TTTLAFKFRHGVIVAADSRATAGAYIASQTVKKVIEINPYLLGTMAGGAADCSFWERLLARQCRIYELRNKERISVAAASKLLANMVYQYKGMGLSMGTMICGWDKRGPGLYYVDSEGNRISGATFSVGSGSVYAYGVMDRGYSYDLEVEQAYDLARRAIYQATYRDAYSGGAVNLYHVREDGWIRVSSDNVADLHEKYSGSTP
T1 sequence (P28062 73-276): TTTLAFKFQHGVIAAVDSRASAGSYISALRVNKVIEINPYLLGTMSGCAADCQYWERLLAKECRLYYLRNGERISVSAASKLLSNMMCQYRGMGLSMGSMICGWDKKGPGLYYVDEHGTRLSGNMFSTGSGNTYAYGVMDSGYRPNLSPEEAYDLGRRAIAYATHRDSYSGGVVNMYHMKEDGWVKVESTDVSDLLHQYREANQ
Description: Alternatively, the CT-L EC50 of a compound can be determined using 26S proteasome in the context of a cell lysate. Compound is added to lysate generated from cells that either predominantly express constitutive proteasome (e.g., HT29) or immunoproteasome (e.g., THP1). Again, the inhibitory preference is then based on the EC50 ratio (Lysate ratio).

[3] = target: T2, 20S proteasome subunit β5 vs immunoproteasome subunit LMP7 in RPMI-8226 cells (Homo sapiens, UniProt P28062+P28074); experiment: ELISA-based active site assay in RPMI-8226 cells (ELISA ratio); assay type: cell-based; details: EC50 ratio with β5 antibody to LMP7 antibody, RPMI-8226 cells; >1 = prefers immunoproteasome
T2 construct: Cells expressing approximately equivalent amounts of immuno- and constitutive proteasome (e.g., RPMI-8226) are treated with test compound; endogenous in cells; host or cells: RPMI-8226 multiple myeloma cells
T2 sequence (P28074 60-263): T1 sequence (P28074 60-263)
T2 sequence (P28062 73-276): T1 sequence (P28062 73-276)
Description: Lastly, a more cell-based approach can be utilized. Cells expressing approximately equivalent amounts of immuno- and constitutive proteasome (e.g., RPMI-8226) are treated with test compound, followed by the method for determining the activity of a proteasome inhibitor as described in application Ser. No. 11/254,541. The ratio of the EC50 generated in the ELISA-based assay using β5 antibody and LMP7 antibodies (ELISA ratio) provides the basis for determining the inhibitory preference of the test compound. […] In all three assays, a ratio of less than one denotes the molecule inhibits the CT-L activity of the constitutive proteasome better than that of the immunoproteasome. Ratios greater than one signifies the molecule inhibits chymotrypsin-like activity of the immunoproteasome better than that of the constitutive proteasome.
A suitable ELISA assay may be found in U.S. patent application Ser. No. 11/254,541, incorporated herein in its entirety. Briefly, RPMI-8226 cells were treated with 0.1 nM to 1 μM of proteasome Inhibitor B. The samples were then washed with phosphate-buffered saline (PBS) and lysed in hypotonic buffer (20 mM Tris pH 8, 5 mM EDTA) (Tris-HCl and EDTA are available from Teknova, Inc., Hollister, Calif.). Cellular debris was removed by centrifugation at 14,000 rpm in a microfuge (4° C.) for 2 min. The supernatant was transferred to a fresh tube, snap frozen in liquid nitrogen and stored at −80° C. After thawing on ice, the samples (30 μl for assays run in triplicate) were treated with 500 nM of Inhibitor A for 1 hr at room temperature. Following treatment with Inhibitor A, the lysate was denatured by addition of seven volumes of 1% SDS (210 μl) (available from Bio-Rad, Hercules, Calif.) and heating at 99° C. with vigorous shaking for 5 min. The sample was allowed to cool and two volumes (60 μl) of 10% Triton X-100 (available from Bio-Rad, Hercules, Calif.) was added.
Streptavidin sepharose beads (6.5 μl/well) (available from Amersham Biosciences, Piscataway, N.J.), were washed three times with 1 ml PBS (available from Mediatech, Inc., Herndon, Va.) in a microcentrifuge tube. The beads were resuspended in ELISA wash/block buffer (PBS+0.1% Tween 20+1% bovine serum albumin; 20 μl/well) and transferred to the wells of a 96 well filter plate (BSA is available from Sigma, St. Louis, Mo.; Tween is available from Calbiochem, San Diego, Calif.). Denatured whole blood or PBMC lysates that were treated with Inhibitor 3 were added to the filter plate wells containing the streptavidin sepharose beads (each sample assayed in triplicate) and incubated for 1 hr at room temperature with shaking (MultiScreen-DV Opaque Plates with low protein binding durapore membrane; available from Millipore, Billerica, Mass.). The unbound material was removed by gentle filtration and the beads were washed six times with ELISA wash/block buffer (200 μl each).
Primary antibody to human 20S proteasome subunit (35 (rabbit polyclonal antibody; available from Biomol, Plymouth Meeting, Pa.) or human 20S immunoproteasome subunit LMP7 (rabbit polyclonal antibody; available from Affinity BioReagents, Golden, Colo.) was diluted 1:1000 in ELISA wash/block buffer, added to the beads (100 μl/well), and incubated for 1 hr at room temperature on an orbital shaker. The beads were washed six times with ELISA wash/block buffer with gentle filtration. Secondary antibody treatment (1:5000) and washing are as described for primary antibody (goat anti-rabbit antibody-HRP conjugate; available from Biosource, Camarillo, Calif.). The beads were then resuspended in 100 μl chemiluminescent detection reagent (Super Signal Pico Chemiluminescent Substrate™; available from Pierce, Rockford, Ill.) and luminescence was read on a Tecan plate reader. […]

| SMILES | 20 S ratio (const:immuno) [1] | Lysate ratio (HT29:Sultan/Thp1) [2] | Elisa ratio (beta5:LMP7) [3] |
| --- | --- | --- | --- |
| CC(NC(=O)OCc1ccccc1)C(=O)N[C@@H](Cc1ccccc1)C(=O)N[C@@H](CCc1ccccc1)C(=O)C1(C)CO1 (stereo partly drawn) | >2.0 | >3.0 | >3.0 |
| C[C@H](NC(=O)OCc1ccccc1)C(=O)N[C@@H](Cc1ccc(C(C)(C)C)cc1)C(=O)N[C@@H](Cc1ccccc1)C(=O)C1(C)CO1 (stereo partly drawn) | >2.0 | >2.0 | >3.0 |
| CC(C)C(NC(=O)OCc1ccccc1)C(=O)N[C@@H](Cc1c[nH]c2ccccc12)C(=O)N[C@@H](Cc1ccccc1)C(=O)C1(C)CO1 (stereo partly drawn) | >5.0 | >5.0 | >5.0 |
| CC[C@H](C)[C@@H](NC(=O)OCc1ccccc1)C(=O)N[C@@H](Cc1ccccc1)C(=O)N[C@@H](Cc1ccccc1)C(=O)C1(C)CO1 (stereo partly drawn) | >5.0 | >3.0 | >2.0 |
| CC1(C(=O)[C@H](Cc2ccccc2)NC(=O)[C@H](Cc2ccccc2)NC(=O)[C@H](Cc2c[nH]cn2)NC(=O)OCc2ccccc2)CO1 (stereo partly drawn) | <1.0 | <1.0 | <1.0 |
| CC(C)CC(NC(=O)OCc1ccccc1)C(=O)N[C@@H](CC(C)C)C(=O)N[C@@H](CC(C)C)C(=O)C1(C)CO1 (stereo partly drawn) | <0.5 | <0.5 | <0.5 |
| CC(NC(=O)OCc1ccccc1)C(=O)N[C@@H](Cc1c[nH]c2ccccc12)C(=O)N[C@@H](Cc1ccccc1)C(=O)C1(C)CO1 (stereo partly drawn) | >1.0 | >2.0 | >5.0 |
| CC1(C(=O)[C@H](Cc2ccccc2)NC(=O)[C@H](Cc2c[nH]c3ccccc23)NC(=O)[C@H](CCC(N)=O)NC(=O)OCc2ccccc2)CO1 (stereo partly drawn) | >1.0 | >3.0 | >1.0 |
| CC(NC(=O)OCc1ccccc1)C(=O)N[C@@H](Cc1csc2ccccc12)C(=O)N[C@@H](Cc1ccccc1)C(=O)C1(C)CO1 (stereo partly drawn) | >1.0 | >1.0 | >3.0 |
| CC(NC(=O)OCc1ccccc1)C(=O)N[C@@H](Cc1ccccc1)C(=O)N[C@@H](C)C(=O)C1(C)CO1 (stereo partly drawn) | <0.5 | <0.5 | <0.5 |
| CC1(C(=O)[C@H](Cc2ccccc2)NC(=O)[C@H](Cc2c[nH]c3ccccc23)NC(=O)C(CSCc2ccccc2)NC(=O)OCc2ccccc2)CO1 (stereo partly drawn) | >2.0 | >3.0 | >1.0 |
| CC(NC(=O)OCc1ccccc1)C(=O)N[C@@H](Cc1cccs1)C(=O)N[C@@H](Cc1ccccc1)C(=O)C1(C)CO1 (stereo partly drawn) | >2.0 | >2.0 | >3.0 |
| CC(NC(=O)OCc1ccccc1)C(=O)N1Cc2ccccc2C[C@@H]1C(=O)N[C@@H](Cc1ccccc1)C(=O)C1(C)CO1 (stereo partly drawn) | <1.0 | <1.0 | <0.5 |
| COc1ccc(C[C@H](NC(=O)C(C)NC(=O)OCc2ccccc2)C(=O)N[C@@H](Cc2ccc(O)cc2)C(=O)C2(C)CO2)cc1 (stereo partly drawn) [drawing 67] | >5.0 | >3.0 | >5.0 |
| CC(NC(=O)OCc1ccccc1)C(=O)N[C@@H](Cc1c[nH]c2ccccc12)C(=O)N[C@@H](Cc1ccc(O)cc1)C(=O)C1(C)CO1 (stereo partly drawn) | >3.0 | >3.0 | >5.0 |
| C[C@H](NC(=O)OCc1ccccc1)C(=O)N[C@@H](Cc1ccc(C#N)cc1)C(=O)N[C@@H](Cc1ccccc1)C(=O)C1(C)CO1 (stereo partly drawn) | >1.0 | >2.0 | >5.0 |
| CC1(C(=O)[C@H](Cc2ccccc2)NC(=O)[C@H](Cc2ccccc2)NC(=O)[C@@H](Cc2ccccc2)NC(=O)OCc2ccccc2)CO1 (stereo partly drawn) | >5.0 | >2.0 | >3.0 |
| CC[C@@H](NC(=O)OCc1ccccc1)C(=O)N[C@@H](Cc1c[nH]c2ccccc12)C(=O)N[C@@H](Cc1ccccc1)C(=O)C1(C)CO1 (stereo partly drawn) [drawing 84] | >5.0 | >3.0 | >5.0 |
| CC[C@H](C)C(NC(=O)[C@H](Cc1c[nH]c2ccccc12)NC(=O)[C@H](C)NC(=O)OCc1ccccc1)C(=O)C1(C)CO1 (stereo partly drawn) | <0.5 | <0.5 | <1.0 |
| CC(NC(=O)OCc1ccccc1)C(=O)N[C@@H](Cc1ccccc1)C(=O)N[C@@H](Cc1ccc(O)cc1)C(=O)C1(C)CO1 (stereo partly drawn) | >5.0 | >3.0 | >3.0 |
| C[C@@H](NC(=O)OCc1ccccc1)C(=O)N[C@@H](Cc1c[nH]c2ccccc12)C(=O)N[C@@H](Cc1ccc(O)cc1)C(=O)C1(C)CO1 (stereo partly drawn) | >5.0 | >5.0 | >3.0 |
